This note sets out measurements from patent US20230002359A1, “PESTICIDALLY ACTIVE FUSED BICYCLIC HETEROAROMATIC COMPOUNDS” (priority 2019, published 2023).

Assay type in all cases: in vivo
For assay [1], the system named is Chilo suppressalis (Striped Rice Stemborer). Briefly: Example B3: Chilo suppressalis (striped rice stemborer), artificial diet, L2 larvae. Particulars: 144 h, read-out: control in at least one of the three categories (mortality, anti-feedant effect, or growth inhibition). The method, then:
24-well microtiter plates with artificial diet were treated with aqueous test solutions prepared from 10′000 ppm DMSO stock solutions by pipetting. After drying, the plates were infested with L2 larvae (6-8 per well). The samples were assessed for mortality, anti-feeding effect, and growth inhibition in comparison to untreated samples 6 days after infestation. Control of Chilo suppressalis by a test sample is given when at least one of the categories mortality, anti-feedant effect, and growth inhibition is higher than the untreated sample.

Assay [2] concerns Plutella xylostella (Diamond Back Moth). Nature of the assay: Example B4: Plutella xylostella (diamond back moth), artificial diet, eggs, 24-well. Particulars: 192 h, read-out: control in at least one of the two categories (mortality or growth inhibition). The protocol: 24-well microtiter plates with artificial diet were treated with aqueous test solutions prepared from 10′000 ppm DMSO stock solutions by pipetting. After drying, Plutella eggs were pipetted through a plastic stencil onto a gel blotting paper and the plate was closed with it. The samples were assessed for mortality and growth inhibition in comparison to untreated samples 8 days after infestation.

Assay [3] concerns Diabrotica Balteata (Corn Root Worm). Briefly: Example B1: Diabrotica balteata (corn root worm), maize sprouts sprayed, L2 larvae. The settings on record: 96 h, application rate of 200 ppm, 4 days after infestation, L2 larvae, read-out: control in at least one of the two categories (mortality or growth inhibition). The method, then: Maize sprouts placed onto an agar layer in 24-well microtiter plates were treated with aqueous test solutions prepared from 10′000 ppm DMSO stock solutions by spraying. After drying, the plates were infested with L2 larvae (6 to 10 per well). The samples were assessed for mortality and growth inhibition in comparison to untreated samples 4 days after infestation.

Where [4] appears, read: application rate of 200 ppm, 6 days after infestation, L2 larvae.
Where [5] appears, read: application rate of 200 ppm, 8 days after infestation, eggs.

Read-outs that look alike come from different tables or passages of the source. Where only a bound is given, the exact number is not on record here.

In the case of `CC(Nc1nc(Cl)nc2c(Cl)cc(C(F)(F)F)cc12)c1ncnn1-c1ncccn1` (centres unmarked) [P.48, 2,8-dichloro-N-[1-(2-pyrimidin-2-yl-1,2,4-triazol-3-yl)ethyl]-6-(trifluoromethyl)quinazolin-4-amine], the percent control (mortality, anti-feedant effect or growth inhibition) at 200 ppm in assay [1] (setting [4]) was at least 80%. On the same count and under the same terms, with `CC(Nc1nc(Cl)nc2c(Br)cc(C(F)(F)F)cc12)c1ncnn1-c1ncccn1` (centres unmarked) [P.51, 8-bromo-2-chloro-N-[1-(2-pyrimidin-2-yl-1,2,4-triazol-3-yl)ethyl]-6-(trifluoromethyl)quinazolin-4-amine] the figure was at least 80%. For the compound `CC(Nc1ncnc2c(Br)cc(Cl)cc12)c1ncnn1-c1ccc(C#N)cn1` (centres unmarked) [P.158, 6-[5-[1-[(8-bromo-6-chloro-quinazolin-4-yl)amino]ethyl]-1,2,4-triazol-1-yl]pyridine-3-carbonitrile], the percent control (mortality or growth inhibition) at 200 ppm in assay [2] (setting [5]) is at least 80%. For the same compound, the percent control (mortality, anti-feedant effect or growth inhibition) at 200 ppm in assay [1] (setting [4]) is at least 80%. Turning to `COC(=O)N(c1ncnc2c(C(F)(F)F)cc(C(F)(F)F)cc12)C(C)c1ncnn1-c1ccc(C#N)cn1` (centres unmarked) [P.167, methyl N-[6,8-bis(trifluoromethyl)quina-zolin-4-yl]-N-[1-[2-(5-cyano-2-pyridyl)-1,2,4-triazol-3-yl]ethyl]carbamate], the percent control (mortality or growth inhibition) at 200 ppm in assay [2] is at least 80%. The percent control (mortality, anti-feedant effect or growth inhibition) at 200 ppm in assay [1] is at least 80%. For the compound `C[C@@H](c1ncnn1-c1ccc(C#N)cn1)N(C)c1ncnc2c(C(F)(F)F)cc(C(=O)C3CC3)cc12` [P.170, 6-[5-[(1S)-1-[[6-(cyclopropanecarbonyl)-8-(trifluoromethyl)quinazolin-4-yl]-methyl-amino]ethyl]-1,2,4-triazol-1-yl]pyridine-3-carbonitrile], the percent control (mortality or growth inhibition) at 200 ppm in assay [2] (setting [5]) is at least 80%. The percent control (mortality, anti-feedant effect or growth inhibition) at 200 ppm in assay [1] (setting [4]) was at least 80%. `C[C@@H](c1ncnn1-c1ncccn1)N(C)c1c(Cl)cnc2c(C(F)(F)F)cc(C(F)(F)F)cc12` [P.181, 3-chloro-N-methyl-N-[(1S)-1-(2-pyrimidin-2-yl-1,2,4-triazol-3-yl)ethyl]-6,8-bis(trifluoromethyl)quinolin-4-amine]: the percent control (mortality or growth inhibition) at 200 ppm in assay [2] (setting [5]) and in assay [3] was at least 80% throughout. As for `CC(c1nccnc1-c1ccc(Br)cn1)N(C)c1ncnc2c(C(F)(F)F)cc(Br)cc12` (centres unmarked) [P.196, 6-bromo-N-[1-[3-(5-bromo-2-pyridyl)pyrazin-2-yl]ethyl]-N-methyl-8-(trifluoromethyl)quinazolin-4-amine], in assay [3], the percent control (mortality or growth inhibition) at 200 ppm is at least 80%. On to `CC(Nc1ncnc2c(C(F)(F)F)cc(Br)cc12)c1nccnc1-c1ccc(Br)cn1` (centres unmarked) [P.198, 6-bromo-N-[1-[3-(5-bromo-2-pyridyl)pyrazin-2-yl]ethyl]-8-(trifluoromethyl)quinazolin-4-amine], for which, in assay [2] (setting [5]), the percent control (mortality or growth inhibition) at 200 ppm is at least 80%. Moreover, in assay [1] (setting [4]), the percent control (mortality, anti-feedant effect or growth inhibition) at 200 ppm is at least 80%. On to `CC(Nc1nccc2c(C(F)(F)F)cc(C(F)(F)F)cc12)c1ncnn1-c1ccc(C#N)cn1` (centres unmarked) [P.210, 6-[5-[1-[[5,7-bis(trifluoromethyl)-1-isoquinolyl]amino]ethyl]-1,2,4-triazol-1-yl]pyridine-3-carbonitrile], for which the percent control (mortality or growth inhibition) at 200 ppm in assay [2] (setting [5]) and in assay [3] was at least 80% throughout. Take `CC(Nc1ncnc2c(C(F)(F)F)cc(C(F)(F)F)cc12)c1ncnn1-c1ccc(F)cn1` (centres unmarked) [P.233, N-[1-[2-(5-fluoro-2-pyridyl)-1,2,4-triazol-3-yl]ethyl]-6,8-bis(trifluoromethyl)quina-zolin-4-amine]: the percent control (mortality or growth inhibition) at 200 ppm in assay [2] (setting [5]) was at least 80%. Regarding `CC(Nc1ncnc2c(Cl)cc(C(F)(F)F)cc12)c1ncnn1-c1ccc(Br)cn1` (centres unmarked) [P.267, N-[1-[2-(5-bromo-2-pyridyl)-1,2,4-triazol-3-yl]ethyl]-8-chloro-6-(trifluoromethyl)quinazolin-4-amine], the percent control (mortality, anti-feedant effect or growth inhibition) at 200 ppm in assay [1] (setting [4]) was at least 80%.
